# Data: patent US6821965B1, “Amidobenzamide derivatives which are useful as cytokine inhibitors” (AsterZeneca AB, priority 1998, dated 2004)
# Columns and labels:
# [1] = target: T1, p38α (Homo sapiens, UniProt Q16539); assay: In vitro enzyme assay, p38α kinase; format: biochemical; conditions: approximate value; read-out: IC50 against p38α
# T1 construct: c-myc (N); 6His (N); made in house; host or cells: E. coli (PET vectors)
# Method: The ability of compounds of the invention to inhibit the enzyme p38 kinase was assessed. Activity of test compounds against each of the p38α and p38β isoforms of the enzyme was determined.
# Human recombinant MKK6 (GenBank Accesion Number G1209672) was isolated from Image clone 45578 (Genomics 1996, 33, 151) and utilised to produce protein in the form of a GST fusion protein in a pGEX vector using analogous procedures to those disclosed by J. Han el al., Journal of Biological Chemistry, 1996, 271, 2886-2891. p38α (GenBank Accession Number G529039) and p38β (GenBank Accession Number G1469305) were isolated by PCR amplification of human lymphoblastoid cDNA (GenBank Accession Number GM1416) and human foetal brain cDNA [synthesised from mRNA (Clontech, catalogue no. 6525-1) using a Gibco superscript cDNA synthesis kit] respectively using oligonucleotides designed for the 5′ and 3′ ends of the human p38α and p38β genes using analogous procedures to those described by J. Han et al., Biochimica et Biophysica Acta, 1995, 1265, 224-227 and Y. Jiang et al., Journal of Biological Chemistry 1996, 271, 17920-17926.
# Both p38 protein isoforms were expressed in e coli in PET vectors. Human recombinant p38α and p38β isoforms were produced as 5′ c-myc, 6His tagged proteins. Both MKK6 and the p38 proteins were purified using standard protocols: the GST MKK6 was purified using a glutathione sepharose column and the p38 proteins were purified using nickel chelate columns.
# The p38 enzymes were activated prior to use by, incubation with MKK6 for 3 hours at 30° C. The unactivated coli-expressed MKK6 retained sufficient activity to fully activate both isoforms of p38. The activation incubate comprised p38α (10 μl of 10 mg/ml) or p38β (10 μl of 5 mg/ml) together with MKK6 (10 μl of 1 mg/ml), ‘Kinase buffer’ [100 μl; pH 7.4 buffer comprising Tris (50 mM), EGTA (0.1 mM), sodium orthovanadate (0.1 mM) and β-mercaptoethanol (0.1%)] and MgATP (30 μl of 50 mM Mg(OCOCH3)2 and 0.5 mM ATP). This produced enough activated p38 enzyme for 3 Microtiter plates.
# Test compounds were solubilised in DMSO and 10 μl of a 1:10 diluted sample in ‘Kinase Buffer’ was added to a well in a Microtiter plate. For single dose testing, the compounds were tested at 10 μM. ‘Kinase Assay Mix’ [30 μl; comprising Myelin Basic Protein (Gibco BRL cat no. 1322B-θ10; 1 ml of a 3.33 mg/ml solution in water), activated p38 enzyme (50 μl) and ‘Kinase Buffer’ (2 ml)] was then added followed by ‘Labelled ATP’ [10 μl; comprising 50 μM ATP, 0.1 μCi^33P ATP (Amersham International cat. no. BF 1000) and 50 mM Mg(OCOCH3)21]. The plates were incubated at room temperature with gentle agitation. Plates containing p38α were incubated for 90 min and plates containing p38β were incubated for 45 min. Incubation was stopped by the addition of 50 μl of 20% trichloroacetic acid (TCA). The precipitated protein was phosphorylated by p38 kinase and test compounds were assessed for their ability to inhibit this phosphorylation. The plates were filtered using a Canberra Packard Unifilter and washed with 2% TCA, dried overnight and counted on a Top Count scintillation counter.
# Test compounds were tested initially at a single dose and active compounds were retested to allow IC50 values to be determined.
# [2] = tested on: TNFα production in human whole blood; assay: Human Whole Blood (HWB) test: LPS-stimulated TNFα production; format: cell-based; conditions: approximate value
# Method: The ability of the compounds of this invention to inhibit TNFα production was also assessed in a human whole blood assay. Human whole blood secretes TNFα when stimulated with LPS. This property of blood forms the basis of an assay which is used as a secondary test for compounds which profile as active in the PBMC test.
# Heparinised (10 units/ml) human blood was obtained from volunteers. 160 μl whole blood were added to 96 well round-bottom plates (Corning 25850). Compounds were solubilised and serially diluted in RPMI 1640 medium (Gibco) supplemented with 50 units/ml penicillin, 50 μg/ml streptomycin and 2 mM glutamine, as detailed above. 20 μl of each test concentration was added to appropriate wells (triplicate cultures). 20 μl of RPMI 1640 medium supplemented with antibiotics and glutamine was added to control wells. Plates were incubated for 30 minutes at 37° C. (humidified incubator), prior to addition of 20 μl LPS (final concentration 10 μg/ml). RPMI 1640 medium was added to control wells. Six “LPS alone” and four “medium alone” controls were included on each plate. A known TNFαsynthesis/secretion inhibitor was included in each test. Plates were incubated for 6 hours at 37° C. (humidified incubator). Plates were centrifuged (2000 rpm for 10 minutes) and 100 μl plasma removed and stored at −70° C. (Corning 25850 plates). TNFα levels were measured by ELISA (see WO92/10190 and Current Protocols in Molecular Biology, vol 2 by Frederick M. Ausbel et al., John Wiley and Sons Inc.). The paired antibodies that were used in the ELIZA were obtained from R&D Systems (catalogue nos. MAB610 anti-human TNFα coating antibody, BAF210 biotinylated anti-human TNFα detect antibody).
# [3] = tested on: TNFα production by human peripheral blood mononuclear cells; assay: PBMC test: LPS-stimulated TNFα production; format: cell-based; conditions: approximate value
# Method: The ability of compounds of this invention to inhibit TNFα production was assessed by using human peripheral blood mononuclear cells which synthesise and secrete TNFα when stimulated with lipopolysaccharide.
# Peripheral blood mononuclear cells (PBMC) were isolated from heparinised (10 units/ml heparin) human blood by density centrifugation (Lymphoprep™; Nycomed). Mononuclear cells were resuspended in culture medium [RPMI 1640 medium (Gibco) supplemented with 50 units/ml penicillin, 50 μg/ml streptomycin, 2 mM glutamine and 1% heat-inactivated human AB serum (Sigma H-1513)]. Compounds were solubilised in DMSO at a concentration of 50 mM, diluted 1:100 in culture medium and subsequently serial dilutions were made in culture medium containing 1% DMSO. PBMCs (2.4×10^5 cells in 160 μl culture medium) were incubated with 20 μl of varying concentrations of test compound (triplicate cultures) or 20 μl culture medium containing 1% DMSO (control wells) for 30 minutes at 37° C. in a humidified (5% CO2/95% air) incubator (Falcon 3072; 96 well flat-bottom tissue culture plates). 20 μl lipopolysaccharide [LPS E. Coli 0111:B4 (Sigma L-4130), final concentration 10 μg/ml] solubilised in culture medium was added to appropriate wells. 20 μl culture medium was added to “medium alone” control wells. Six “LPS alone” and four “medium alone” controls were included on each 96 well plate. Varying concentrations of a known TNFα inhibitor were included in each test, i.e. an inhibitor of the PDE Type IV enzyme (for example see Semmler, J. Wachtel. H and Endres, S., Int. J. Immunopharmac. (1993), 15(3), 409-413) or an inhibitor of proTNFα convertase (for example, see McGeehan, G. M. el al. Nature (1994) 370, 558-561). Plates were incubated for 7 hours at 37° C. (humidified incubator) after which 100 μl of the supernatant was removed from each well and stored at −70° C. (96 well round-bottom plates; Corning 25850). TNFα levels were determined in each sample using a human TNFα ELISA (see WO92/10190 and Current Protocols in Molecular Biology, vol 2 by Frederick M. Ausbel et al., John Wiley and Sons Inc.). […]
# T1 sequence (Q16539 whole entry): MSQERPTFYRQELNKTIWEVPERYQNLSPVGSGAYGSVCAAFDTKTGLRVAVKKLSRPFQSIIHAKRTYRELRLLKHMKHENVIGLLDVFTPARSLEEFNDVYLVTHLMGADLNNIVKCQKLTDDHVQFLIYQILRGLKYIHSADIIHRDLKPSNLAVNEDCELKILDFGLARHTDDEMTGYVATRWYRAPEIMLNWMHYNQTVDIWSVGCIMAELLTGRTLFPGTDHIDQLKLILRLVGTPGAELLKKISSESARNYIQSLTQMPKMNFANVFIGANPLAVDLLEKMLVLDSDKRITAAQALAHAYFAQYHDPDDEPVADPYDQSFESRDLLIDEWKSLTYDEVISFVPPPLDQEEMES
SMILES,IC50 [1],IC50 [2],IC50 [3]
"Cc1ccc(C(=O)Nc2cccc(N(C)C)c2)cc1NC(=O)c1ccc2ncccc2c1 [Example 12, N-(3-dimethylaminophenyl)-4-methyl-3-(6-quinolylcarbonylamino)benzamide]",~0.7 µM,,~22 µM
"CCCc1ccc(C(=O)Nc2cc(C(=O)Nc3cccc(N(C)C)c3)ccc2C)cc1 [Example 3, Compound No. 1, N-(3-dimethylaminophenyl)-4-methyl-3-(4-propylbenzamido)benzamide]",~0.3 µM,,~6 µM
"COc1ccc(C(=O)Nc2cc(C(=O)NCCC3CCCCC3)ccc2C)cc1OC [Example 11, N-(2-cyclohexylethyl)-3-(3,4-dimethoxybenzamido)-4-methylbenzamide]",~1 µM,,~8 µM

# Next, values leading:
IC50 [1],IC50 [2],IC50 [3],SMILES
~0.05 µM,~2 µM,,"Cc1ccc(C(=O)Nc2cccc(N3CCOCC3)c2)cc1NC(=O)c1cccc(OC2CCNCC2)c1 [Example 20, 4-methyl-N-(3-morpholinophenyl)-3-(3-piperidin-4-yloxybenzamido)benzamide]"
~0.3 µM,~15 µM,,"CCN(CC)Cc1ccc(C(=O)Nc2cc(C(=O)Nc3cccc(N4CCOCC4)c3)ccc2C)cc1 [Example 31(4), 4-methyl-3-(4-diethylaminomethylbenzamido)-N-(3-morpholinophenyl)benzamide]"
~0.05 µM,~5 µM,,"Cc1ccc(C(=O)Nc2cccc(N3CCOCC3)c2)cc1NC(=O)c1cccc(CN2CCN(C)CC2)c1 [Example 30, 4-methyl-3-[3-(4-methylpiperazin-1-ylmethyl)benzamido]-N-(3-morpholinophenyl)benzamide]"
